The nature of assay [1]: test (c): heart rate in rats adapted to a thermoneutral environment (D500 dose and selectivity index). Particulars: ratio of D₅₀₀ to ED₅₀ in test (b).
Assay [2] in a line: test (d): metabolic rate (oxygen consumption) in cold adapted rats. The format is in vivo. The settings on record: at 1mgkg⁻¹ p.o.
In assay [3] the test system is BAT mitochondria. The assay is described as follows: test (b): GDP binding in BAT mitochondria of cold adapted rats, relative to isoprenaline. The format is in vivo. The settings on record: dose necessary to produce 50% of the isoprenaline (1 mg/kg) effect on GDP binding.

Where only a bound is given, the exact number is not on record here.

As to `CC(C)NCC(O)c1ccc(O)c(O)c1` (stereo not shown) [isoprenaline, reference compound], in assay [1] (route not stated), the SI stood at 0.06.

Molecule `CCCC(=O)Cc1ccc(OCCNCC(O)COc2ccccc2)cc1` (stereo not shown) [Example 5, 1-[4-(2-(2-hydroxy-3-phenoxypropylamino)ethoxy)phenyl]pentan-2-one] showed a metabolic rate in assay [2] of 6.6 ml O₂ min ⁻¹Kg^.75. In assay [3], this molecule yielded an ED₅₀ of 0.23 mgkg⁻¹. Besides, the SI in assay [1] (oral) is reported as above 100.
